The results in this text go back to article PMC12114840, “Exploring the Anticancer Properties of 1,2,3-Triazole-Substituted Andrographolide Derivatives” (Pharmaceuticals, 2025).

One experiment has as its system A375 cells (melanoma). The experiment can be described thus: Sulforhodamine B (SRB) antiproliferative assay, A375. The settings on record: Homo sapiens, A-375, A375, 48 h, mean ± SEM of four to six independent experiments. Format: cell-based. On the procedure: (§1) The antiproliferative properties of andrographolide and all prepared derivatives (2–26) were evaluated against a panel of different cancer cell lines, including human pancreatic ductal adenocarcinoma (PANC-1), colorectal adenocarcinoma (HCT116), melanoma (A375), breast adenocarcinoma (MCF-7) and a non-tumorigenic colon (CCD-18Co) cell line using the sulforhodamine B assay.
(§2) Human breast adenocarcinoma MCF-7, pancreatic ductal adenocarcinoma PANC-1, melanoma A375, and non-tumorigenic colon CCD-18Co cell lines were purchased from ATCC (Rockville, MD, USA). Human colorectal adenocarcinoma HCT116 cells were kindly provided by B. Vogelstein (The Johns Hopkins Kimmel Cancer Center, Baltimore, MD, USA). Tumor cells were routinely cultured in RPMI-1640 medium with UltraGlutamine from Biowest (VWR, Carnaxide, Portugal) supplemented with 10% fetal bovine serum (FBS) from Biowest (VWR, Carnaxide, Portugal), except for the PANC-1 cells, which were grown in DMEM (4.5 g/L glucose) with stable L-glutamine and sodium pyruvate and supplemented with 10% FBS. The non-tumorigenic CCD-18Co cells were cultured in EMEM (Lonza, VWR, Carnaxide, Portugal), supplemented with 10% FBS. All cells were incubated at 37 °C in a humidified atmosphere of 5% CO2. Routine mycoplasma testing was performed using the MycoAlert™ PLUS mycoplasma detection kit (Lonza).
(§3) For the evaluation of the compound effect on cell proliferation, human cell lines were seeded in 96-well plates at a density of 5.0 × 10^3 (HCT116, MCF-7, PANC-1, A375, and CCD-18Co) cells per well, for 24 h. Cells were then treated with serial dilutions of the compound (ranging from 0.63 to 30 µM), for an additional 48 h incubation period. The growth inhibitory effects were assessed by SRB assay, as described in [58], and the half-maximal inhibitory concentration (IC50 values) were determined for each cell line using the GraphPad Prism software version 7.0 (La Jolla, CA, USA). Culture medium containing a maximum of 0.05% dimethyl sulfoxide (DMSO) was used as negative control.

Experiment [1] deals with CCD-18Co cells (non-tumorigenic colon). Kind of experiment: Sulforhodamine B (SRB) antiproliferative assay, CCD-18Co. Format: cell-based. The following applies: Homo sapiens, CCD-18Co non-tumorigenic, 48 h, mean ± SEM of four to six independent experiments. On the procedure: as §1, §2, §3
Experiment [2] has as its system PANC-1 cells. The experiment can be described thus: Scratch (wound healing) assay. In kind it is cell-based, human. The settings on record: PANC-1, 1.35 µM, 6 h and 24 h. From the text: Metastasis remains the greatest challenge in the clinical management of cancer. Cell migration is a key process that, during the whole cascade of cancer development, contributes to tumor invasion and metastasis. The scratch assay is a common in vitro technique used to assess two-dimensional cell migration and motility. It involves creating an artificial scratch or “wound” in a confluent monolayer of cells and then monitoring the progression of the wound over time. Therefore, a wound healing assay was used to evaluate the effect of compound 12 on the cell migration ability of PANC-1 cells.
Totals of 6 × 10^5 PANC-1 cells/well were grown to confluence in 6-well plates, and a fixed-width wound was created in the cell monolayer using a sterile 10 µL micropipette tip. Cells were treated with DMSO or 1.35 µM of compound 12 and images of the wound were captured at different time points (0, 6, and 24 h) using an inverted NIKON TE 2000-U microscope from Nikon Instruments Inc. (Izasa, Carnaxide, Portugal) at 100× magnification with a DXM1200F digital camera (Nikon Instruments Inc., Amstelveen, The Netherlands) and NIS-Elements microscope imaging software (version 4; Nikon Instruments Inc.). Wound closure was calculated by subtracting the wound area (measured using Fiji Software, version 1.54f) at the indicated time point of treatment from the wound area at the starting point (0 h).

Experiment [3] concerns PANC-1 cells. The experiment can be described thus: Drug combination assay with 5-fluorouracil (SRB, CompuSyn). In kind it is cell-based, human. The settings on record: PANC-1, 48 h.
Method: Using the CompuSyn software (version 1.0), a multiple drug effect analysis was performed for each combination, to determine combination index (CI) and dose-reduction index (DRI) values. CI values indicate the effect of combining multiple drugs as synergistic (CI < 1), additive (CI = 1), or antagonistic (CI > 1). DRI values represent the fold decrease in the dose of a drug needed when in combination to achieve the same efficacy as the drug alone. DRI values > 1 are favorable given the concern for toxicity when combining multiple drugs.
The effect on cell proliferation was analyzed by SRB assay. […] Synergistic interactions of drugs were indicated as CI < 1, antagonist interactions as CI > 1.1, and additive effects as 1 < CI < 1.1.
In another experiment the test system is cleaved PARP-1. The experiment can be described thus: Western blot, cleaved PARP-1. The settings on record: PANC-1, 3 and 6 μM, 48 h. In kind it is cell-based, human. From the text: To further investigate the mechanism of action of the triazole derivative 12, an apoptosis analysis was subsequently performed in PANC-1 cells. The early stages of apoptosis are characterized by the disruption of membrane asymmetry and the translocation of phosphatidylserine from the inner to the outer leaflet of the plasma membrane, which can be detected using Annexin V-FITC, a protein with high affinity for phosphatidylserine. In the later stages of apoptosis, the cell membrane loses its integrity, allowing propidium iodide (PI) to penetrate into the cell. Thus, PANC-1 cells treated with compound 12 at 3 and 6 μM for 48 h were analyzed by flow cytometry after Annexin V-FITC and PI staining (Figure 1B, bottom panel; and Figure 1D). This analysis can distinguish and quantify viable cells (annexin V−, PI−), early apoptotic cells (annexin V+, PI−), late apoptotic cells (annexin V+, PI+), and necrotic cells (annexin V−/PI+). […]
PANC-1 (1.5 × 10^5 cells/well) were seeded in six-well plates, allowed to adhere overnight, and treated with 3 µM and 6 µM of compound 12 for 48 h. Protein lysates were obtained in RIPA buffer with protease inhibitors (Sigma-Aldrich, Lisbon, Portugal) and quantified using Pierce® bicinchoninic acid (BCA) protein assay reagents (Thermo Fisher Scientific, Porto Salvo, Portugal). […]

As to `C=C1CC[C@@H]2[C@](C)(COC(C)=O)[C@H](OC(C)=O)CC[C@@]2(C)[C@@H]1C[C@H](C1=CCOC1=O)n1cc(-c2ccc(Br)cc2)nn1` [Compound 12, (12R)-4-bromophenyl-1,2,3-triazole-3,19-diacetoxy-14-deoxy-andrographolide], the half-inhibitory concentration (IC50) with A375 cells (melanoma) was found to be 1.7 µM; in experiment [1], 9.6 ± 2.3 µM. In the experiment with PANC-1 cells [2], the “wound closure compared to control” value is “significantly reduced the wound closure”. Also, the “combination index (CI)” value in the experiment on PANC-1 cells [3] (5-FU 3.75 µM + 1.35 µM of compound 12) is 0.87; with PANC-1 cells [3] (5-FU 7.5 µM + 1.35 µM of compound 12), 0.90. The “levels of cleaved PARP-1” value with cleaved PARP-1 is recorded as “significant increase in the levels of cleaved PARP-1”.
